Laboratory results as given in patent US5446043A, “Isoquinolyl, quinoxalinyl and quinazolinyl derivatives as inhibitors of 5-lipoxygenase” (Imperial Chemical Industries Plc, priority 1989, dated 1995).

What was measured:
cyclooxygenase = biological target: T1, cyclooxygenase (Homo sapiens, UniProt P23219); test: Test b) heparinised human blood challenged with A23187, TxB2 radioimmunoassay (cyclooxygenase); assay type: cell-based; settings: A23187, T×B2
T1 construct: incubating a test compound with heparinised human blood, prior to challenge with the calcium ionophore A23187; endogenous in cells; host or cells: blood cells (chiefly platelets, own knowledge) in heparinised human whole blood
Description: (§1) b) An in vitro assay system involving incubating a test compound with heparinised human blood, prior to challenge with the calcium ionophore A23187 and then indirectly measuring the inhibitory effects on 5-LO by assaying the amount of LTB4 using the specific radioimmunoassay described by Carey and Forder (F. Carey and R. A. Forder, Brit. J. Pharmacol. 1985, 84, 34P) which involves the use of a protein-LTB4 conjugate produced using the procedure of Young et alia (Prostaglandins, 1983, 26(4), 605-613). The effects of a test compound on the enzyme cyclooxygenase (which is involved in the alternative metabolic pathway for arachidonic acid .and gives rise to prostaglandins, thromboxanes and related metabolites) may be measured at the same time using the specific radioimmunoassay for thromboxane B2 (T×B2) described by Carey and Forder (see above). This test provides an indication of the effects of a test compound against 5-LO and also cyclooxgenase in the presence of blood cells and proteins. It permits the selectivity of the inhibitory effect on 5-LO or cyclooxygenase to be assessed.

5-LO [1] = biological target: T2, 5-LO (Homo sapiens, UniProt P09917); test: Test b) heparinised human blood challenged with A23187, LTB4 radioimmunoassay (5-LO); assay type: cell-based; settings: read-out: IC50 against LTB4
T2 construct: incubating a test compound with heparinised human blood, prior to challenge with the calcium ionophore A23187; endogenous in cells; host or cells: blood cells in heparinised human whole blood
T2 sequence (P09917 1-674): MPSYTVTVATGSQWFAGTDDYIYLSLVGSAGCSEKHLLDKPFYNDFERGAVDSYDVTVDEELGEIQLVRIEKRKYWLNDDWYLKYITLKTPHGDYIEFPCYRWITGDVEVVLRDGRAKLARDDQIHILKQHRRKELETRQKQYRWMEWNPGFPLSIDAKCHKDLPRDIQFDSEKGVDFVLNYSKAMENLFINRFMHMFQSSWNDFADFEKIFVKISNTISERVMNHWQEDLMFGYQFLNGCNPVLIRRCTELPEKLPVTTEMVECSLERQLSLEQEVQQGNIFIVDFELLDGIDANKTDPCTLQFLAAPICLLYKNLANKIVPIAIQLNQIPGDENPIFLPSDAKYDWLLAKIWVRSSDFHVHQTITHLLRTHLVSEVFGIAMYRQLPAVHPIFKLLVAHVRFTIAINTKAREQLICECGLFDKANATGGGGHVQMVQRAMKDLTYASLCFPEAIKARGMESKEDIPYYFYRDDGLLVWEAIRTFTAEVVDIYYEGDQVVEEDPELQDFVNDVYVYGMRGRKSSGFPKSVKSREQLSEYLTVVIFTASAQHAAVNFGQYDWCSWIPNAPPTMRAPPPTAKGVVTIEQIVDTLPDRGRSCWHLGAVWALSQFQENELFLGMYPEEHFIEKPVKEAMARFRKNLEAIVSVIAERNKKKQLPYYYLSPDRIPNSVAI
Description: as §1

5-LO [2] = test: Test c) ex vivo assay: administration of compound, blood collection, A23187 challenge, LTB4 radioimmunoassay; assay type: in vivo
Description: c) An ex vivo assay system, which is a variation of test b) above, involving administration of a test compound (usually orally as the suspension produced when a solution of the test compound in dimethylsulphoxide is added to carboxymethylcellulose), blood collection, heparinisation, challenge with A23187 and radioimmunoassay of LTB4 and T×B2. This test provides an indication of the bioavailability of a test compound as an inhibitor of 5-LO or cyclooxygenase.

T1 sequence (P23219 24-599): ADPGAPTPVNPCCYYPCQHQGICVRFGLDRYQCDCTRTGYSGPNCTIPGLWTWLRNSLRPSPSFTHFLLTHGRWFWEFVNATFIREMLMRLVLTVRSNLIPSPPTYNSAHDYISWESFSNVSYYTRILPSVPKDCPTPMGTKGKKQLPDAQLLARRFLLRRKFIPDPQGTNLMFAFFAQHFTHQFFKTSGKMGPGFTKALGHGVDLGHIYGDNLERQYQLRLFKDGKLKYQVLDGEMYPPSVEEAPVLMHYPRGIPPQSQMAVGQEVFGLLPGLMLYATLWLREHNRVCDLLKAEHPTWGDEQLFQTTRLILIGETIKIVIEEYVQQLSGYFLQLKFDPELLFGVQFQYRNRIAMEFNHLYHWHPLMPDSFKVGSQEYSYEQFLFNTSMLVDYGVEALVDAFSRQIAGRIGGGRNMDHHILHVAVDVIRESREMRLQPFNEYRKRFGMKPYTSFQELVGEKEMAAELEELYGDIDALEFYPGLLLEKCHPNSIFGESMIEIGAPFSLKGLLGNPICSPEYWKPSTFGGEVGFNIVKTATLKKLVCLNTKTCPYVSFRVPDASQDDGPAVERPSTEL

- IC50 (cyclooxygenase): > 40 µM
- IC50 (5-LO [1]): 8 µM
Structure (SMILES): CO[C@H]1CCC[C@@]1(OC)c1cccc(OCC#Cc2ccccn2)c1 (relative stereo) [trans-1,2-dimethoxy-1-[3-(3-(2-pyridyl)prop-2-yn-1-yloxy)phenyl]-cyclopentane]
- oral ED50 against LTB4 (5-LO [2]): < 100 mg/k
